Results reported in patent US9682925B2, “Cyclopropaneamine compound” (TAKEDA PHARMACEUTICAL COMPANY LIMITED, priority 2011, dated 2017).
Structures can show the parent of a compound that is named as a salt.

Legend:
Type in all cases: biochemical
human LSD1(171-852) = biological target: T1, human LSD1(171-852) (Homo sapiens, UniProt O60341); assay: Measurement of LSD1 inhibitory activity (time-resolved fluorescence, biotin-histone H3 mono methylated K4 peptide); conditions: read-out: LSD1 IC50 value
T1 construct: to give hLSD1(171-852) purified product; made in house; host or cells: Escherichia coli C43(DE3) pLysS

MAO-B = biological target: T2, MAO-B (Homo sapiens, UniProt P27338); assay: Measurement of MAO-B inhibitory activity (MAO-Glo Assay)
T2 construct: purchased Sigma-Aldrich Co. LLC
T2 sequence (P27338 1-520): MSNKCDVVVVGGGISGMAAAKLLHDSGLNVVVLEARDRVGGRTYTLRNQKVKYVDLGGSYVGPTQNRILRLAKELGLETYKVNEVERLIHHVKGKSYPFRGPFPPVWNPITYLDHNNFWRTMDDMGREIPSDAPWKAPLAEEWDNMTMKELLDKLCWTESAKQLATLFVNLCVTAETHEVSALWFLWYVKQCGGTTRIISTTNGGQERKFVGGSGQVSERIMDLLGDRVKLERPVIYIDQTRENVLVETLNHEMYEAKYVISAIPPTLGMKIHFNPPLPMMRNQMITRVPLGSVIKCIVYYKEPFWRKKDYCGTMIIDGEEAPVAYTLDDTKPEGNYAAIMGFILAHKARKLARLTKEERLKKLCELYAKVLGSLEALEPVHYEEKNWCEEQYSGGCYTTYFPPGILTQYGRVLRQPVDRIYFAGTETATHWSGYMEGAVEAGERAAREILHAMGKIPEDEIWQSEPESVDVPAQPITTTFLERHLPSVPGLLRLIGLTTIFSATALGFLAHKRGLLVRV
Method in brief: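 Percent inhibition was calculated from luciferin-based luminescence, corrected with a blank lacking enzyme and a control lacking compound. The reaction ran 60 min at room temperature after adding MAO substrate (16 µM as added). This followed a 10 min compound–enzyme preincubation in HEPES pH 7.5 buffer.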

MAO-A = biological target: T3, MAO-A (Homo sapiens, UniProt P21397); assay: Measurement of MAO-A inhibitory activity (MAO-Glo Assay)
T3 construct: purchased Sigma-Aldrich Co. LLC
T3 sequence (P21397 1-527): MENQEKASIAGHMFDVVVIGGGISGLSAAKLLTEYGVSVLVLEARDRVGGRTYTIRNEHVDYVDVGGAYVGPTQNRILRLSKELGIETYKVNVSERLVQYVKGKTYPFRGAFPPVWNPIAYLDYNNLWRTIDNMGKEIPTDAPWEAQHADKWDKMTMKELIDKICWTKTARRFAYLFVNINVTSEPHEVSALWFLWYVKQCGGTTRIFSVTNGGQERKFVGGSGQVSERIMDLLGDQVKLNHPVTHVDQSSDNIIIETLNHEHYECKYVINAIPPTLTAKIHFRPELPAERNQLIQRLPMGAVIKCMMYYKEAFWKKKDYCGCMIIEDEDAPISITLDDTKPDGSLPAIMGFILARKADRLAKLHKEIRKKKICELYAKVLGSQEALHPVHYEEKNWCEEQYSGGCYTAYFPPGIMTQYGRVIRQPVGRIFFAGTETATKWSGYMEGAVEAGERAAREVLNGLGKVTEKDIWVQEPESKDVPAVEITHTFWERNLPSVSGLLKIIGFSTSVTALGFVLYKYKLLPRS
Method in brief: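 MAO-A (400 ng) was pre-incubated with compound 10 min at room temperature in 100 mM HEPES pH 7.5, 5% glycerol, then MAO substrate (160 μM stock) added for 60 min. Luciferin detection reagent, 20 min, luminescence; % inhibition against no-compound control minus no-enzyme blank.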

SMILES	IC50 (human LSD1(171-852)) [µM]	IC50 (MAO-B) [µM]	IC50 (MAO-A) [µM]
O=C(N[C@@H](Cc1ccccc1)C(=O)Nc1ccc(C2CC2NCc2ccccc2)cc1)OCc1ccccc1 (stereo in doubt) [Example 57, N-{4-[trans-2-(benzylamino)cyclopropyl]phenyl}-Nα-[(benzyloxy)carbonyl]-L-phenylalaninamide hydrochloride]	0.48	> 10	> 10
CN(C(=O)c1ccc(-c2ccccc2)cc1)c1ccc([C@@H]2C[C@H]2NCC2CC2)cc1 (relative stereo) [Example 64, N-(4-{trans-2-[(cyclopropylmethyl)amino]cyclopropyl}phenyl)-N-methylbiphenyl-4-carboxamide hydrochloride]	0.2	> 10	8.5
O=C(Nc1ccc([C@@H]2C[C@H]2NC2CCN(CC(F)(F)F)CC2)cc1)c1ccc(-c2ccccc2)cc1 (relative stereo) [Example 63, N-{4-[trans-2-{[1-(2,2,2-trifluoroethyl)piperidin-4-yl]amino}cyclopropyl]phenyl}biphenyl-4-carboxamide hydrochloride]	< 0.1	> 10	> 10
COc1ccc(CN[C@@H]2C[C@H]2c2ccc(NC(=O)c3ccc(-c4ccccc4)cc3)cc2)cc1 (relative stereo) [Example 43, N-(4-{trans-2-[(4-methoxybenzyl)-amino]cyclo-propyl}phenyl)-biphenyl-4-carboxamide]	0.11	4.7	3.3
O=C(Nc1ccc([C@@H]2C[C@H]2NCc2ccc3ccccc3c2)cc1)c1ccccc1 (relative stereo) [Example 18, N-(4-{trans-2-[(naphthalen-2-ylmethyl)amino]-cyclopropyl}-phenyl)benzamide]	< 0.1	> 10	2.6
CCCCCCCCCCCCN[C@@H]1C[C@H]1c1ccc(NC(=O)c2ccccc2)cc1 (relative stereo) [Example 22, N-{4-[trans-2-(dodecylamino)-cyclopropyl]-phenyl}benzamide]	0.41	2.6	3.6
O=C(Nc1ccc([C@@H]2C[C@H]2NC2CCCCCCC2)cc1)c1ccc(-c2ccccc2)cc1 (relative stereo) [Example 45, N-{4-[trans-2-(cyclooctyl-amino)cyclo-propyl]phenyl}-biphenyl-4-carboxamide]	0.29	> 10	> 10
O=C(Nc1ccc([C@@H]2C[C@H]2NCc2ccc(-c3ccccc3)cc2)cc1)c1ccccc1 (relative stereo) [Example 16, N-(4-{trans-2-[(biphenyl-4-ylmethyl)amino]-cyclopropyl}-phenyl)benzamide]	< 0.1	> 10	4.7
O=C(Nc1ccc([C@@H]2C[C@H]2NC2CCCCCCC2)cc1)c1ccccc1 (relative stereo) [Example 24, N-{4-[trans-2-(cyclooctyl-amino)cyclo-propyl]phenyl}-benzamide]	< 0.1	> 10	> 10
CC1=NN(c2ccc(C(=O)Nc3ccc([C@@H]4C[C@H]4NCC4CC4)cc3)cc2)C(=O)C1 (relative stereo) [Example 86, N-(4-{trans-2-[(cyclopropylmethyl)amino]cyclopropyl}-phenyl)-4-(3-methyl-5-oxo-4,5-dihydro-1H-pyrazol-1-yl)benzamide]	1	> 10	> 10
O=C(Nc1ccc([C@@H]2C[C@H]2NC2CCN(Cc3ccccc3)CC2)cc1)c1cccc(C(F)(F)F)c1 (relative stereo) [Example 74, N-(4-{trans-2-[(1-benzylpiperidin-4-yl)amino]cyclopropyl}phenyl)-3-(trifluoromethyl)benzamide dihydrochloride]	< 0.1	> 10	> 10

Other lines, results leading:

IC50 (human LSD1(171-852)) [µM]	IC50 (MAO-B) [µM]	IC50 (MAO-A) [µM]	SMILES
< 0.1	> 10	> 10	O=C(Nc1ccc([C@@H]2C[C@H]2NCC2CC2)cc1)c1coc(-c2ccccc2)n1 (relative stereo) [Example 103, N-(4-{trans-2-[(cyclopropylmethyl)-amino]cyclopropyl}-phenyl)-2-phenyl-1,3-oxazole-4-carboxamide]
< 0.1	> 10	> 10	CN1CCN(c2cccc(C(=O)Nc3ccc([C@@H]4C[C@H]4NCC4CC4)cc3)c2)CC1 (relative stereo) [Example 131, N-(4-{trans-2-[(cyclopropyl-methyl)amino]-cyclopropyl}-phenyl)-3-(4-methylpiperazin-l-yl)benzamide]
< 0.1	> 10	> 10	O=C(Nc1ccc([C@@H]2C[C@H]2NCC2CC2)cc1)c1cccc(OC(F)(F)F)c1 (relative stereo) [Example 109, N-(4-{trans-2-[(cyclopropylmethyl)amino]cyclopropyl}phenyl)-3-(trifluoromethoxy)benzamide hydrochloride]
< 0.1	> 10	> 10	O=C(Nc1ccc([C@@H]2C[C@H]2NCC2CC2)cc1)C1CCCCC1 (relative stereo) [Example 141, N-(4-{trans-2-[(cyclopropylmethyl)amino]cyclopropyl}phenyl)-cyclohexanecarboxamide hydrochloride]
1.8	> 10	> 10	CCCc1ccc(-c2ccc(C(=O)Nc3ccc([C@@H]4C[C@H]4NCC4CC4)cc3)cc2)cc1 (relative stereo) [Example 116, N-(4-{trans-2-[(cyclopropylmethyl)amino]cyclopropyl}-phenyl)-4′-propylbiphenyl-4-carboxamide]
< 0.1	> 10	> 10	O=C(Nc1ccc([C@@H]2C[C@H]2NCC2CC2)cc1)c1ccc(OC(F)(F)F)cc1 (relative stereo) [Example 108, N-(4-{trans-2-[(cyclopropylmethyl)amino]cyclopropyl}phenyl)-4-(trifluoromethoxy)benzamide hydrochloride]
< 0.1	> 10	> 10	O=C(Nc1ccc([C@@H]2C[C@H]2NCC2CC2)cc1)c1cnn(-c2ccccc2)c1 (relative stereo) [Example 124, N-(4-{trans-2-[(cyclopropyl-methyl)amino]cyclo-propyl}phenyl)-1-phenyl-1H-pyrazole-4-carboxamide]
< 0.1	> 10	0.1	O=C(Nc1ccc([C@@H]2C[C@H]2NCC2CC2)cc1)c1ccc(-c2csnn2)cc1 (relative stereo) [Example 119, N-(4-{trans-2-[(cyclopropylmethyl)amino]cyclopropyl}-phenyl)-4-(1,2,3-thiadiazol-4-yl)benzamide]
< 0.1	> 10	> 10	CN(C)c1ccc(CN[C@@H]2C[C@H]2c2ccc(NC(=O)c3cccc(C(F)(F)F)c3)cc2)cc1 (relative stereo) [Example 110, N-[4-(trans-2-{[4-(dimethylamino)benzyl]amino)cyclopropyl}phenyl]-3-(trifluoromethyl)benzamide dihydrochloride]
< 0.1	> 10	> 10	Cc1ccc(C)c(C(=O)Nc2ccc([C@@H]3C[C@H]3NCC3CC3)cc2)c1 (relative stereo) [Example 106, N-(4-{trans-2-[(cyclopropylmethyl)amino]cyclopropyl}phenyl)-2,5-dimethylbenzamide hydrochloride]
< 0.1	> 10	> 10	O=C(Nc1ccc([C@@H]2C[C@H]2NCC2CC2)cc1)c1ccc2ncsc2c1 (relative stereo) [Example 90, N-(4-{trans-2-[(cyclopropylmethyl)amino]cyclopropyl}-phenyl)-1,3-benzothiazole-6-carboxamide]
